Measurements reported in patent publication US8114991B2, “Amino-1,3,5-triazines N-substituted with chiral bicyclic radicals, process for their preparation, compositions thereof, and their use as herbicides and plant growth regulators” (Bayer Cropscience AG, priority 2003, dated 2012).

Key:
[1] = test system: harmful plants such as Stellaria media, Lolium multiforum, Amaranthus retroflexus, Sinapis alba, Avena sativa and Setaria viridis; assay: Pre-emergence effect on weeds (greenhouse pot test); type: in vivo; conditions: application rate of 1 kg or less of active ingredient per hectare; scored after 3 to 4 weeks by comparison with untreated controls
Excerpt: Seeds or rhizome pieces of monocotyledonous and dicotyledonous weed plants were placed in sandy loam in plastic pots and covered with soil. The compounds according to the invention, which were formulated in the form of wettable powders or emulsion concentrates, were then applied to the surface of the soil cover as aqueous suspension or emulsion at various dosages with an application rate of 600 to 800 l of water per ha (converted).
After the treatment, the pots were placed into a greenhouse and kept under good growth conditions for the weeds. The plant or emergence damage was scored visually after the test plants have emerged after an experimental time of 3 to 4 weeks by comparison with untreated controls.

[2] = test system: harmful plants such as Sinapis alba, Echinochloa crus-galli, Lolium multiflorum, Stellaria media, Cyperus iria, Amaranthus retroflexus, Setaria viridis, Avena …; assay: Post-emergence effect on weeds (greenhouse pot test); type: in vivo; conditions: application rate of 2 kg or less of active ingredient per hectare; treated in the three-leaf stage; scored after approx. 3 to 4 weeks by comparison with untreated controls

SMILES	pre-emergence control of harmful plants (plant or emergence damage scored visually) [1]	herbicidal post-emergence activity against harmful plants (scored visually) [2]
C[C@@H]1Cc2ccccc2[C@@H]1Nc1nc(N)nc([C@@H](C)F)n1 [Compound 5.1]	very good pre-emergence control	very good herbicidal post-emergence activity
Cc1ccc2c(c1)[C@H](Nc1nc(N)nc([C@@H](C)F)n1)[C@H](C)C2 [Compound 5.2]	very good pre-emergence control	very good herbicidal post-emergence activity
CC(F)c1nc(N)nc(NC2c3ccccc3CC2C)n1 (stereo not drawn) [Compound 6.1]	very good pre-emergence control	very good herbicidal post-emergence activity
Cc1ccc2c(c1)C(Nc1nc(N)nc(C(C)F)n1)C(C)C2 (stereo not drawn) [Compound 6.2]	very good pre-emergence control	very good herbicidal post-emergence activity
Cc1nc(N)nc(N[C@H]2c3ccccc3C[C@@H]2C)n1 [Compound 7.1]	very good pre-emergence control	very good herbicidal post-emergence activity
Cc1ccc2c(c1)[C@H](Nc1nc(C)nc(N)n1)[C@@H](C)C2 [Compound 7.2]	very good pre-emergence control	very good herbicidal post-emergence activity
Cc1nc(N)nc(N[C@H]2c3cc(F)ccc3C[C@@H]2C)n1 [Compound 7.3]	very good pre-emergence control	very good herbicidal post-emergence activity
Cc1nc(N)nc(N[C@H]2c3cc(Cl)ccc3C[C@@H]2C)n1 [Compound 7.4]	very good pre-emergence control	very good herbicidal post-emergence activity
Cc1nc(N)nc(N[C@H]2c3ccccc3CC[C@@H]2C)n1 [Compound 7.11]	very good pre-emergence control	very good herbicidal post-emergence activity
CC(C)c1nc(N)nc(N[C@H]2c3ccccc3C[C@@H]2C)n1 [Compound 7.24]	very good pre-emergence control	very good herbicidal post-emergence activity
CCCc1nc(N)nc(N[C@H]2c3ccccc3C[C@@H]2C)n1 [Compound 7.47]	very good pre-emergence control	very good herbicidal post-emergence activity
CCCc1nc(N)nc(N[C@H]2c3cc(C)ccc3C[C@@H]2C)n1 [Compound 7.48]	very good pre-emergence control	very good herbicidal post-emergence activity
CCCc1nc(N)nc(N[C@H]2c3ccccc3CC[C@@H]2C)n1 [Compound 7.57]	very good pre-emergence control	very good herbicidal post-emergence activity
COCc1nc(N)nc(N[C@H]2c3ccccc3C[C@@H]2C)n1 [Compound 7.70]	very good pre-emergence control	very good herbicidal post-emergence activity
COCc1nc(N)nc(N[C@H]2c3cc(C)ccc3C[C@@H]2C)n1 [Compound 7.72]	very good pre-emergence control	very good herbicidal post-emergence activity
CCc1nc(N)nc(N[C@H]2c3ccccc3C[C@@H]2C)n1 [Compound 7.74]	very good pre-emergence control	very good herbicidal post-emergence activity
CCc1nc(N)nc(N[C@H]2c3cc(C)ccc3C[C@@H]2C)n1 [Compound 7.75]	very good pre-emergence control	very good herbicidal post-emergence activity
CCc1nc(N)nc(N[C@H]2c3ccccc3CC[C@@H]2C)n1 [Compound 7.78]	very good pre-emergence control	very good herbicidal post-emergence activity

SMILES	pre-emergence control of harmful plants (plant or emergence damage scored visually) [1]	herbicidal post-emergence activity against harmful plants (scored visually) [2]
C[C@H]1CCc2ccccc2[C@@H]1Nc1nc(N)nc(C(C)(C)F)n1 [Compound 7.203]	very good pre-emergence control	very good herbicidal post-emergence activity
C[C@H]1Cc2ccccc2[C@@H]1Nc1nc(N)nc(C(C)(C)F)n1 [Compound 7.228]	very good pre-emergence control	very good herbicidal post-emergence activity
Cc1ccc2c(c1)[C@H](Nc1nc(N)nc(C(C)(C)F)n1)[C@@H](C)C2 [Compound 7.229]	very good pre-emergence control	very good herbicidal post-emergence activity
Cc1ccc2c(c1)[C@H](Nc1nc(N)nc(CCSC(F)(F)F)n1)[C@@H](C)C2 [Compound 7.238]	very good pre-emergence control	very good herbicidal post-emergence activity
C[C@H]1Cc2ccccc2[C@@H]1Nc1nc(N)nc(C(F)(F)F)n1 [Compound 7.239]	very good pre-emergence control	very good herbicidal post-emergence activity
Cc1ccc2c(c1)[C@H](Nc1nc(N)nc(C(F)(F)F)n1)[C@@H](C)C2 [Compound 7.240]	very good pre-emergence control	very good herbicidal post-emergence activity
C[C@H]1Cc2ccccc2[C@@H]1Nc1nc(N)nc(CCSC(F)(F)F)n1 [Compound 7.241]	very good pre-emergence control	very good herbicidal post-emergence activity
C[C@H]1Cc2ccccc2[C@@H]1Nc1nc(N)nc(CC#N)n1 [Compound 7.242]	very good pre-emergence control	very good herbicidal post-emergence activity
C[C@H]1Cc2ccccc2[C@@H]1Nc1nc(N)nc(C(F)F)n1 [Compound 7.244]	very good pre-emergence control	very good herbicidal post-emergence activity
Cc1ccc2c(c1)[C@H](Nc1nc(C)nc(N)n1)CC2 [Compound 8.2]	very good pre-emergence control	very good herbicidal post-emergence activity
Cc1nc(N)nc(N[C@@H]2CCc3ccc(F)cc32)n1 [Compound 8.3]	very good pre-emergence control	very good herbicidal post-emergence activity
Cc1nc(N)nc(N[C@@H]2CCc3cc(C)c(C)cc32)n1 [Compound 8.7]	very good pre-emergence control	very good herbicidal post-emergence activity
Cc1nc(N)nc(N[C@@H]2CCCc3ccccc32)n1 [Compound 8.11]	very good pre-emergence control	very good herbicidal post-emergence activity
Cc1ccc2c(c1)[C@H](Nc1nc(C)nc(N)n1)CCC2 [Compound 8.12]	very good pre-emergence control	very good herbicidal post-emergence activity
Cc1cc(C)c2c(c1)[C@H](Nc1nc(C)nc(N)n1)CCC2 [Compound 8.15]	very good pre-emergence control	very good herbicidal post-emergence activity
Cc1ccc2c(c1)[C@H](Nc1nc(C)nc(N)n1)CCO2 [Compound 8.21]	very good pre-emergence control	very good herbicidal post-emergence activity
CCc1nc(N)nc(N[C@@H]2CCc3ccccc32)n1 [Compound 8.24]	very good pre-emergence control	very good herbicidal post-emergence activity
CCc1nc(N)nc(N[C@@H]2CCc3ccc(C)cc32)n1 [Compound 8.25]	very good pre-emergence control	very good herbicidal post-emergence activity
